Test results taken from patent US4581451A, “Preparation of di- and tri-substituted xanthine compounds” (priority 1980, dated 1986).
Where two headings read alike, the source gives them in different places.

Tests used:
[1] = base screening: bronchodilatory in vitro
Source text: (e) bronchodilatory in vitro as determined in accordance with F. P. Luduena et al., Arch. int. Pharmacodyn, Vol. 111, pages 392-400, 1957

[2] = rectal temperature in mice; type: in vivo; conditions: p.o.
Source text: (§1) The compounds of Examples 1, 4, 11 and 12 were subjected to behavioural tests in accordance with "predictability and specificity of behaviour screening tests for neuroleptics", P. Worms and K. G. Lloyd, […], Vol. 5, pages 445-450, 1979, comprising: […]

[3] = behavioural study in rats: anxiety induced by a new environment (rearings and movements); type: in vivo, male Sprague-Dawley rats; conditions: Rattus norvegicus, 0.5 h; oral, sodium salt in solution, 30 min before test, 15 min count; S.N.: mean of two regression curves; S.A.: from rearings curve; read-out: ED 50
Source text: The xanthines obtained in accordance with the preceding Examples were the subject of a behavioural study in rats as a function of the anxiety induced by a new environment. In rats, anxiety is manifested by rearing the animal on its two hind paws, whilst locomotive activity is expressed by their movements.
A state of anxiety is induced by confronting "naive" male Sprague-Dawley (Iffa-Credo, France) rats weighing from 260 to 300 g with a new environment in the form of cages of Macrolon (30×25 cm) which are situated in a sound-proofed air-conditioned room (22° C./50% relative humidity).
The number of rearings and movements is automatically determined by means of infrared photoelectric cells which only emit electrical pulses for the active movements of the animal and not for its static movements, such as those of its head and tail, for reasons of reproducibility. These photoelectric cells scan the cages at two different levels so as to distinguish the standing-up movements from the other movements. The number of rearings and movements is counted by the two rows of photoelectric cells, memorised and read out using a printer in accordance with a pre-established program.
The tested compound in solution in the form of its sodium salt is orally administered by oesophagus probe (the reference administration being formed by 6 ml/kg of distilled water) 30 minutes before the animals are placed in the cages. The number of rearings and movements is determined during the 15 minutes after they have been put into the cages in relation to the effect generated by the reference administration.
The ED 50 dose (expressed in mg/kg), i.e. the quantity of substance required to bring about a 50% variation in the motive activity in relation to the reference administration, is determined from the development of the effects of the tested substances on the number of movements and rearings as a function of the progressive doses administered expressed as a percentage of the movements and rearings counted for the reference administration.
The gradients of the regression curves corresponding to the movements and to the rearings are compared by recording the value of the gradient of the movement curve on the abscissa (d) and the value of the gradient of the rearing curve on the ordinant (r) of a system of rectungular axes.
The ratio of the gradient of the movements to that of the rearings is also determined, enabling the specificity of effect of a given substance on the anxiety state to be assessed.
The effect of a substance is determined by its position relative to the curve d=r of gradient=1. The substances situated on this curve have a similar effect on the rearings and movements, being sedatives with a non-specific effect (S.N.). For these compounds, the ED 50 value quoted corresponds to the mean taken from the two regression curves.
These compounds are sedatives of anxiolytic character (S.A.). In this case, the ED 50 value is calculated from the regression curve of the rearings.

in vivo [4] = conditions: rat, po, solution in DMSO
Source text: (b) Determination of the acute toxicity LD 50 in male and female rats in solution is DMSO (reference DMSO alone) in accordance with C.

[5] = analgesia induced by pentobarbital in mice; type: in vivo; conditions: p.o.
Source text: as §1

[6] = base screening: anti-allergic in male and female rats; type: in vivo
Source text: (d) anti-allergic in male and female rats, as determined in accordance with J. Goose and A. M. J. N. Blair, Immunol., Vol. 16, pages 749-760, 1969

[7] = stereotype behaviour induced by apomorphine in rats; type: in vivo; conditions: p.o.
Source text: as §1

in vivo [8] = conditions: mouse, po, solution in DMSO
[9] = hypomotility induced by amphetamine in rats; type: in vivo; conditions: p.o.
Source text: as §1

[10] = base screening: anti-histamine in vitro
Source text: (f) anti-histamine in vitro as determined in accordance with R. Magnus, Arch f.d., ges. physiol., Vol. 102, pages 123-151, 1904.

[11] = catalepsy induced by haloperidol in rats; type: in vivo; conditions: p.o.
Source text: as §1

[12] = climbing behaviour induced by apomorphine in mice; type: in vivo; conditions: p.o.
Source text: as §1

[13] = base screening: diuretic in male rats; type: in vivo; conditions: Rattus norvegicus, read-out: minimal effective dose producing a significant response, diuretic (c)
Source text: (c) diuretic in male rats, as determined in accordance with W. L. Lipschitz, Z Hadidian and A. Kerpcsar, JPET, Vol. 79, pages 97-110, 1943

## CCCCn1c(=O)n(CCC)c(=O)c2[nH]c(C)nc21 [Example 11, 1-propyl-3-butyl-8-methyl xanthine]
[1]
  minimal effective concentration producing a significant response, bronchodilatory (e): 10 µg/mL
[2]
  rectal temperature: hypothermal effect at 2 mg/kg p.o.
[3]
  ED50: 0.35 mg/kg
In vivo [4]; female, read-out: LD 50, rats female
  LD50: 15 mg/kg
In vivo [4]; male, read-out: LD 50, rats male
  LD50: 25 mg/kg
[5]
  analgesia induced by pentobarbital: potentialisation at 0.5 mg/kg p.o.
[6]
  minimal effective dose producing a significant response, anti-allergic (d): no effect
[7]
  stereotype behaviour induced by apomorphine: no antagonism up to 8 mg/kg p.o.
In vivo [8]; female, read-out: LD 50, mice female
  LD50: 151 mg/kg
In vivo [8]; male, read-out: LD 50, mice male
  LD50: 91 mg/kg
[9]
  hypomotility induced by amphetamine: antagonism at 0.5 mg/kg p.o.
[10]
  minimal effective concentration producing a significant response, anti-histamine (f): 50 µg/mL
[11]
  catalepsy induced by haloperidol: potentialisation at 1 mg/kg p.o.
[12]
  climbing behaviour induced by apomorphine: inhibition at 1 mg/kg p.o.
[13]
  minimal effective dose: 0.25 mg/kg
